Test results reported in patent US9868690B2, “Prodrugs of monomethyl fumarate (MMF)” (RATIOPHARM GMBH, priority 2013, dated 2018).
Counter-ions that a name gives are not always drawn.

assay: Kinetic of MMF-release during incubation in intestinal fluid from the minipig; format: in vitro ADME, Göttingen SPF minipig; conditions: incubation in minipig small intestinal fluid diluted 1/20 v/v with 50 mM KH2PO4, pH 6.8, 37° C., samples 0-120 min (up to 1,320 min); reference DMF
Description: Investigation and Comparison of the Kinetic of MMF-Release of the Different Compounds of the Present Invention and DMF During Incubation in Intestinal Fluid from the Minipig
Intestinal fluid samples were prepared at CiToxLAB Scantox A/S. The samples were taken from 1 female Göttingen SPF minipig from CiToxLAB Scantox A/S standard stock, originally obtained from Ellegaard Göttingen Minipigs A/S, DK-4261 Dalmose, Denmark. The minipig was 10 months old and the body weight was 21 kg. The minipig was identified by an individual number tagged to the pinna of one ear (animal number is documented in the raw data).
The minipig was fasted for approximately 28 hours before sampling of intestinal fluid. On the day of sampling, the minipig was weighed and anaesthetised by an intramuscular injection in the neck or in the left hind leg (about 0.3 ml per kg body weight) of a mixture of Zoletil 50 Vet., Virbac, France (125 mg tiletamine and 125 mg zolazepam), Rompun Vet., Bayer, Germany (20 mg xylazine/ml, 6.5 ml), Ketaminol Vet., Veterinaria AG, Switzerland (100 mg ketamine/ml, 1.5 ml) and Methadon DAK, Nycomed Danmark, Denmark (10 mg methadon/ml, 2.5 ml).
Intestinal fluid was obtained by flushing one jejunal segment, measuring 30.2 cm, with saline. Intestinal fluid together with saline used for flushing was placed in centrifuge tubes. All samples were frozen at −70° C. and shipped on dry ice to the Sponsor for further use.
• Instrument: Acquity UPLC system coupled with a TQ detector (triple quadruple mass spectrometer) UPLC Method: • Column: Phenomenex Kinetex C18, 100 A, 2.6 μm (150×4.6 mm) • flow: 0.4 ml/min • split: appr. 100 μl/min to MS • temperature 30° C. • solvent system (isocratic): • Solvent A 25% water with 0.1% acetic acid • Solvent B 75% methanol with 0.1% acetic acid • stoptime: 6 min • autosampler temperature: 8° C. • injection volume: 4 μl • retention time: MMF: 4.3 min • MEF: 4.7 min Mass Spectrometry • software: Masslynx 4.1 • detection mode: electrospray/negative ions (ESP−) • capillary voltage: 2.3 kV • source temperature: 100° C. • desolvation temperature: 450° C. • cone voltage: 18 V • desolvation gas: N2, 650 L/h • cone gas: N2, 20 L/h • collision gas: argon, appr. 3.3*10^−3 mbar • collision energy: 11 eV • MRM [m/z]: 128.94>85.03 Monomethylfumarate dwell:200 msec • 142.99>99.06 Monoethylfumarate (ISTD) dwell:200 msec 2.1.2. Stock and Calibration Solutions
Calibration solutions were prepared by serial dilution of SSMMF; diluted small intestinal fluid (diluted by 1/20 v/v with 50 mM KH2PO4, pH 6.8; (dil IF) was used as matrix. The dilution scheme is given below:
50 μl sample (calibration solution or sample of an incubation experiment with MMF prodrugs) was mixed with 50 μl WSISTD, 20 μl formic acid and 100 μl acetonitrile. This mixture was vortexed for 15 sec and centrifuged (13,000 rpm, 3 min). Thereafter, 4 μl of the supernatant were subjected to LC-MS analysis.
2.2. Incubation Experiments with DMF (Reference) and Compounds of the Invention
Stock solutions were prepared in DMSO or in DMSO with 10% (v/v) with water. Concentrations in stock solutions were 5.00, 2.50 and 1.67 mmol for compounds with one, two and three molar MMF equivalents.
In a HPLC glass vial, 8 μl of stock solution were mixed with 792 μl dil IF and the mixture was stirred (250 rpm) in a water bath (T=37° C.).
Immediately after mixing as well as at t=15 min, 30 min, 60 min, 90 min and 120 min, 50 μl were withdrawn and prepared for LC-MS analysis as described in chapter. 2.1.3.
Incubations were continued and in case the result of analysis of the 120 min indicated the presence of remaining intact MMF-prodrug, additional samples were taken (t=360 or 420 min and at 1,260 or 1,320 min) and analysed.
The concentration/peak area ratio data pairs were subjected to regression analysis with 1/x weighting and the resulting calibration equation was used to quantify the MMF content in incubation samples.

**Q.** For `COC(=O)/C=C/C(=O)OCc1oc(=O)oc1C` [Example 6, (E)-but-2-enedioic acid methyl ester5-methyl-2-oxo-[1,3]dioxol-4-yl methyl ester], which “hydrolysis to MMF (MMF release, LC-MS) compared with DMF” value (shortened to “hydrolysis to MMF … compared with DMF”) is on record?
**A.** Its value is “significantly slower hydrolysis to MMF than DMF”.

**Q.** With `COC(=O)/C=C/C(=O)OCOP(=O)(OC(C)(C)C)OC(C)(C)C` [Example 4a, (E)-but-2-enedioic acid di-tert-butoxy-phosphoryloxymethyl ester methyl ester] as the compound, how does the “hydrolysis to MMF … compared with DMF” value read?
**A.** Its value is “significantly slower hydrolysis to MMF than DMF”.

**Q.** With `COC(=O)/C=C/C(=O)OCCN1CCN(C(C)C)CC1` [Example 1c, (E)-But-2-enedioic acid methyl ester 2-(4-isopropyl-piperazin-1-yl) ethyl dihydrochloride] as the compound, how does the “hydrolysis to MMF … compared with DMF” value read?
**A.** The value was “significantly slower hydrolysis to MMF than DMF”.

**Q.** Which “hydrolysis to MMF … compared with DMF” value does the source give for `COC(=O)/C=C/C(=O)OCCN1CCN(C)CC1` [Example 1b, (E)-But-2-enedioic acid methyl ester 2-(4-methyl-piperazin-1-yl) ethyl dihydrochloride] here?
**A.** The value was “significantly slower hydrolysis to MMF than DMF”.

**Q.** With `COC(=O)/C=C/C(=O)OCCN1CCS(=O)(=O)CC1` [Example 1a, (E)-But-2-enedioic acid 2-(1,1-dioxo-1-lambda*6*-thiomorpholin-4-yl)-ethyl ester methyl ester] as the compound, how does the “hydrolysis to MMF … compared with DMF” value read?
**A.** Its value is “significantly slower hydrolysis to MMF than DMF”.

**Q.** With `COC(=O)/C=C/C(=O)OCCN1CC[S+]([O-])CC1` [Example 1a′, (E)-But-2-enedioic acid methyl ester 2-(1-oxo-1lambda*4*-thiomorpholin-4-yl)-ethyl ester] as the compound, how does the “hydrolysis to MMF … compared with DMF” value read?
**A.** The value was “significantly slower hydrolysis to MMF than DMF”.

**Q.** Which “hydrolysis to MMF … compared with DMF” value does the source give for `COC(=O)/C=C/C(=O)OCC(COC(=O)/C=C/C(=O)OC)OC(=O)/C=C/C(=O)OC` [Example 3, (E)-but-2-enedioic acid 2,3-bis-(-3-methoxycarbonyl-acryloyloxy)-propyl ester methyl ester] here?
**A.** Its value is “significantly slower hydrolysis to MMF than DMF”.

**Q.** Which “hydrolysis to MMF … compared with DMF” value does the source give for `COC(=O)/C=C/C(=O)OCCN(CCOC(=O)/C=C/C(=O)OC)CCOC(=O)/C=C/C(=O)OC` [Example 2, tris-[2-(E)-3-methoxycarbonylacryloyloxy)-ethyl]amine hydrochloride] here?
**A.** Its value is “significantly slower hydrolysis to MMF than DMF”.

**Q.** For `COC(=O)/C=C/C(=O)OCCOC(=O)[C@@H](N)C(C)C` [Example 5a, (E)-but-2-enedioic acid 2-((S)-2-amino-3-methyl-butyrryloxy)-ethyl ester methyl ester hydrochloride], which “hydrolysis to MMF … compared with DMF” value is on record?
**A.** The value was “significantly slower hydrolysis to MMF than DMF”.
